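Assay format: 96-well plates, 48-hour exposure. At the GI50, growth is halved.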 Activity calls are given as the source filed them. Cut-off read from the data, not from the text of the source: active = GI50 up to about 1.1 µM and inactive = higher.
Tests used:
Test in all cases: NCI-60 cell line screen, 48 h
786-0 = tested on: 786-0
A498 = tested on: A498
A549 = tested on: A549
ACHN = tested on: ACHN
CAKI-1 = tested on: CAKI-1
CCRF-CEM = tested on: CCRF-CEM
COLO 205 = tested on: COLO 205
DLD-1 = tested on: DLD-1
DMS-114 = tested on: DMS-114
DMS-273 = tested on: DMS-273
EKVX = tested on: EKVX
HCC 2998 = tested on: HCC 2998
HCT-116 = tested on: HCT-116
HCT-15 = tested on: HCT-15
HL-60 = tested on: HL-60
HOP-18 = tested on: HOP-18
HOP-62 = tested on: HOP-62
HOP-92 = tested on: HOP-92
HT-29 = tested on: HT-29
IGROV-1 = tested on: IGROV-1
K562 = tested on: K562
KM-20L2 = tested on: KM-20L2
KM12 = tested on: KM12
LOX IMVI = tested on: LOX IMVI
M14 = tested on: M14
M19-MEL = tested on: M19-MEL
MOLT-4 = tested on: MOLT-4
Malme-3M = tested on: Malme-3M
NCI-H226 = tested on: NCI-H226
NCI-H23 = tested on: NCI-H23
NCI-H460 = tested on: NCI-H460
NCI-H522 = tested on: NCI-H522
OVCAR-3 = tested on: OVCAR-3
OVCAR-4 = tested on: OVCAR-4
OVCAR-5 = tested on: OVCAR-5
OVCAR-8 = tested on: OVCAR-8
RPMI-8226 = tested on: RPMI-8226
RXF 393 = tested on: RXF 393
SF-268 = tested on: SF-268
SF-295 = tested on: SF-295
SF-539 = tested on: SF-539
SK-MEL-28 = tested on: SK-MEL-28
SK-MEL-2 = tested on: SK-MEL-2
SK-MEL-5 = tested on: SK-MEL-5
SK-OV-3 = tested on: SK-OV-3
SN12C = tested on: SN12C
SNB-19 = tested on: SNB-19
SNB-75 = tested on: SNB-75
SNB-78 = tested on: SNB-78
SR = tested on: SR
SW-620 = tested on: SW-620
TK-10 = tested on: TK-10
U-251 = tested on: U-251
UACC-257 = tested on: UACC-257
UACC-62 = tested on: UACC-62
UO-31 = tested on: UO-31
XF498 = tested on: XF498
LXFL 529 = tested on: LXFL 529

Which GI50 (786-0) does the source give for `NC1=Nc2ccccc2Sc2ccccc21` here?
Its GI50 is > 100 µM (inactive).

What about the GI50 (A498) of the same compound?
The GI50 was 84.9 µM (inactive).

What about the GI50 (A549) of the same compound?
The GI50 was > 100 µM (inactive).

And the GI50 (ACHN)?
The GI50 was > 100 µM (inactive).

What about the GI50 (CAKI-1) of the same compound?
Its GI50 is > 100 µM (inactive).

What about the GI50 (CCRF-CEM) of the same compound?
The GI50 was > 100 µM (inactive).

And the GI50 (COLO 205)?
Its GI50 is > 100 µM (inactive).

What about the GI50 (DLD-1) of the same compound?
Its GI50 is > 100 µM (inactive).

And the GI50 (DMS-114)?
The GI50 was > 100 µM (inactive).

What about the GI50 (DMS-273) of the same compound?
Its GI50 is > 100 µM (inactive).

And the GI50 (EKVX)?
Its GI50 is > 100 µM (inactive).

What about the GI50 (HCC 2998) of the same compound?
Its GI50 is > 100 µM (inactive).

What about the GI50 (HCT-116) of the same compound?
Its GI50 is 35.9 µM (inactive).

What about the GI50 (HCT-15) of the same compound?
The GI50 was greater than 100 µM.

What about the GI50 (HL-60) of the same compound?
Its GI50 is > 100 µM (inactive).

What about the GI50 (HOP-18) of the same compound?
Its GI50 is 0.912 µM (active).

And the GI50 (HOP-62)?
The GI50 was > 100 µM (inactive).

What about the GI50 (HOP-92) of the same compound?
The GI50 was 32.7 µM (inactive).

And the GI50 (HT-29)?
The GI50 was > 100 µM (inactive).

And the GI50 (IGROV-1)?
Its GI50 is > 100 µM (inactive).

What about the GI50 (K562) of the same compound?
Its GI50 is 82.6 µM (inactive).

What about the GI50 (KM-20L2) of the same compound?
Its GI50 is > 100 µM (inactive).

And the GI50 (KM12)?
The GI50 was > 100 µM (inactive).

What about the GI50 (LOX IMVI) of the same compound?
The GI50 was > 100 µM (inactive).

What about the GI50 (M14) of the same compound?
The GI50 was > 100 µM (inactive).

What about the GI50 (M19-MEL) of the same compound?
The GI50 was > 100 µM (inactive).

And the GI50 (MOLT-4)?
Its GI50 is > 100 µM (inactive).

And the GI50 (Malme-3M)?
The GI50 was > 100 µM (inactive).

What about the GI50 (NCI-H226) of the same compound?
Its GI50 is 24.4 µM (inactive).

And the GI50 (NCI-H23)?
Its GI50 is > 100 µM (inactive).

And the GI50 (NCI-H460)?
Its GI50 is > 100 µM (inactive).

And the GI50 (NCI-H522)?
The GI50 was 60.3 µM (inactive).

And the GI50 (OVCAR-3)?
The GI50 was > 100 µM (inactive).

What about the GI50 (OVCAR-4) of the same compound?
Its GI50 is > 100 µM (inactive).

What about the GI50 (OVCAR-5) of the same compound?
The GI50 was > 100 µM (inactive).

And the GI50 (OVCAR-8)?
The GI50 was > 100 µM (inactive).

And the GI50 (RPMI-8226)?
Its GI50 is 77.4 µM (inactive).

What about the GI50 (RXF 393) of the same compound?
Its GI50 is 95.7 µM (inactive).

What about the GI50 (SF-268) of the same compound?
The GI50 was 56.9 µM (inactive).

What about the GI50 (SF-295) of the same compound?
Its GI50 is > 100 µM (inactive).

And the GI50 (SF-539)?
Its GI50 is 58.5 µM (inactive).

And the GI50 (SK-MEL-28)?
Its GI50 is > 100 µM (inactive).

What about the GI50 (SK-MEL-2) of the same compound?
The GI50 was > 100 µM (inactive).

And the GI50 (SK-MEL-5)?
The GI50 was 91.8 µM (inactive).

And the GI50 (SK-OV-3)?
The GI50 was > 100 µM (inactive).

And the GI50 (SN12C)?
Its GI50 is > 100 µM (inactive).

What about the GI50 (SNB-19) of the same compound?
Its GI50 is 87.3 µM (inactive).

What about the GI50 (SNB-75) of the same compound?
Its GI50 is 16.5 µM (inactive).

What about the GI50 (SNB-78) of the same compound?
The GI50 was > 100 µM (inactive).

And the GI50 (SR)?
The GI50 was > 100 µM (inactive).

What about the GI50 (SW-620) of the same compound?
The GI50 was > 100 µM (inactive).

And the GI50 (TK-10)?
The GI50 was > 100 µM (inactive).

What about the GI50 (U-251) of the same compound?
Its GI50 is > 100 µM (inactive).

What about the GI50 (UACC-257) of the same compound?
The GI50 was > 100 µM (inactive).

What about the GI50 (UACC-62) of the same compound?
Its GI50 is > 100 µM (inactive).

What about the GI50 (UO-31) of the same compound?
The GI50 was 34.4 µM (inactive).

What about the GI50 (XF498) of the same compound?
The GI50 was 52.1 µM (inactive).

For `CC(C)(C)c1cc(C(O)(C(F)(F)F)C(F)(F)F)c2c(c1)C(C(F)(F)F)(C(F)(F)F)OC(c1ccccc1)(C(C)(C)C)N2` (centres undefined), which GI50 (786-0) is on record?
The GI50 was > 100 µM (inactive).

And the GI50 (A549)?
Its GI50 is > 100 µM (inactive).

And the GI50 (ACHN)?
The GI50 was 3.7 µM (inactive).

And the GI50 (CAKI-1)?
Its GI50 is 4.02 µM (inactive).

And the GI50 (COLO 205)?
Its GI50 is 4.08 µM (inactive).

And the GI50 (DLD-1)?
Its GI50 is 3.76 µM (inactive).

What about the GI50 (DMS-114) of the same compound?
Its GI50 is 2.82 µM (inactive).

And the GI50 (DMS-273)?
Its GI50 is 3.61 µM (inactive).

And the GI50 (EKVX)?
Its GI50 is 5.18 µM (inactive).

What about the GI50 (HCC 2998) of the same compound?
The GI50 was 8.07 µM (inactive).

What about the GI50 (HCT-116) of the same compound?
Its GI50 is 3.72 µM (inactive).

What about the GI50 (HCT-15) of the same compound?
The GI50 was 3.56 µM.

What about the GI50 (HOP-18) of the same compound?
Its GI50 is 0.515 µM (active).

What about the GI50 (HOP-92) of the same compound?
Its GI50 is < 0.01 µM (active).

What about the GI50 (HT-29) of the same compound?
Its GI50 is 3.4 µM (inactive).

What about the GI50 (IGROV-1) of the same compound?
Its GI50 is 4.33 µM (inactive).

And the GI50 (K562)?
Its GI50 is 3.07 µM (inactive).

What about the GI50 (KM-20L2) of the same compound?
The GI50 was 4.92 µM (inactive).

And the GI50 (KM12)?
The GI50 was 4.5 µM (inactive).

What about the GI50 (LXFL 529) of the same compound?
The GI50 was 3.28 µM (inactive).

What about the GI50 (M14) of the same compound?
The GI50 was 0.659 µM (active).

What about the GI50 (M19-MEL) of the same compound?
Its GI50 is 3.56 µM (inactive).

And the GI50 (MOLT-4)?
Its GI50 is 2.07 µM (inactive).

And the GI50 (Malme-3M)?
The GI50 was 7.06 µM (inactive).

What about the GI50 (NCI-H226) of the same compound?
Its GI50 is 3.24 µM (inactive).

What about the GI50 (NCI-H23) of the same compound?
The GI50 was 1.99 µM (inactive).

What about the GI50 (NCI-H460) of the same compound?
The GI50 was 2.65 µM (inactive).

What about the GI50 (NCI-H522) of the same compound?
Its GI50 is 3.03 µM (inactive).

And the GI50 (OVCAR-3)?
Its GI50 is 0.637 µM (active).

What about the GI50 (OVCAR-4) of the same compound?
Its GI50 is 14.4 µM (inactive).

And the GI50 (OVCAR-5)?
Its GI50 is 18.8 µM (inactive).

And the GI50 (OVCAR-8)?
Its GI50 is 6.05 µM (inactive).

What about the GI50 (RPMI-8226) of the same compound?
The GI50 was 3.07 µM (inactive).

And the GI50 (RXF 393)?
The GI50 was 3.37 µM (inactive).

And the GI50 (SF-295)?
Its GI50 is 6.56 µM (inactive).

What about the GI50 (SF-539) of the same compound?
Its GI50 is > 100 µM (inactive).

What about the GI50 (SK-MEL-28) of the same compound?
The GI50 was 9.16 µM (inactive).

And the GI50 (SK-MEL-2)?
The GI50 was 4.45 µM (inactive).

And the GI50 (SK-MEL-5)?
The GI50 was 2.45 µM (inactive).

What about the GI50 (SK-OV-3) of the same compound?
The GI50 was 2.7 µM (inactive).

What about the GI50 (SN12C) of the same compound?
Its GI50 is 4.85 µM (inactive).

What about the GI50 (SNB-19) of the same compound?
The GI50 was 4.65 µM (inactive).

And the GI50 (SNB-75)?
Its GI50 is 2.82 µM (inactive).

What about the GI50 (SNB-78) of the same compound?
Its GI50 is 8.28 µM (inactive).

What about the GI50 (SR) of the same compound?
The GI50 was 2.58 µM (inactive).

What about the GI50 (SW-620) of the same compound?
Its GI50 is 4.5 µM (inactive).

What about the GI50 (TK-10) of the same compound?
The GI50 was 3.02 µM (inactive).

And the GI50 (U-251)?
Its GI50 is 3.3 µM (inactive).

What about the GI50 (UACC-257) of the same compound?
Its GI50 is 4.99 µM (inactive).

What about the GI50 (UACC-62) of the same compound?
Its GI50 is 3.66 µM (inactive).

What about the GI50 (UO-31) of the same compound?
Its GI50 is 4.04 µM (inactive).

What about the GI50 (XF498) of the same compound?
Its GI50 is 3.6 µM (inactive).

— ChEMBL document CHEMBL1201862, “PubChem BioAssay data set” (2004)
